Laboratory results taken from patent US20160158200A1, “Combinations of Hepatitis C Virus Inhibitors” (priority 2013, published 2016).

The compounds below were run on HCV genotype-1a variant with glutamine 30 changed to glutamate in the NS5A protein. Settings: test compound titrated with BMS-790052 fixed at 200 nM; genotype 1a Q30E replicon.
Type: cell-based
In short: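 Synergy was assessed by combining several fixed amounts of an NS5A-targeting compound with a titration of the second compound of interest.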

| SMILES | Fold-Synergistic 1a (Q30E) [fold] |
| --- | --- |
| COC(=O)N[C@@H](C(=O)N[C@H](c1ncc(-c2ccc(-c3ccc(-c4cnc([C@@H](NC(=O)[C@H](NC(=O)OC)c5ccccc5)C(C)C)[nH]4)cc3)cc2)[nH]1)C(C)C)c1ccccc1 [Compound P-103] | >100 |
| Cc1oncc1C(=O)N[C@H](c1ncc(-c2ccc(-c3ccc(-c4cnc([C@@H](NC(=O)c5cnoc5C)C(C)C)[nH]4)cc3)cc2)[nH]1)C(C)C [Compound S-104] | >100 |
| CCCCC(=O)NC1(C(=O)N[C@H](c2nc(-c3ccc(-c4ccc(-c5c[nH]c([C@@H](NC(=O)C6(NC(=O)CCCC)CCCCC6)C(C)(C)C)n5)cc4)cc3)c[nH]2)C(C)(C)C)CCCCC1 [Compound W-253] | >100 |
| C[C@H]1CCN(C(=O)C(=O)N(C2CC2)C2CC2)C1c1nc(-c2ccc(-c3ccc(-c4c[nH]c(C5[C@@H](C)CCN5C(=O)C(=O)N(C5CC5)C5CC5)n4)cc3)cc2)c[nH]1 (stereo partly drawn) [Compound W-244] | >100 |
| CC(C)[C@H](NC(=O)CC1CC1)c1ncc(-c2ccc(-c3ccc(-c4cnc([C@@H](NC(=O)CC5CC5)C(C)C)[nH]4)cc3)cc2)[nH]1 [Compound S-50] | >10 |
| CC(C)(C)[C@H](NC(=O)C1(CO)CC(F)(F)C1)c1nc(-c2ccc(-c3ccc(-c4c[nH]c([C@@H](NC(=O)C5(CO)CC(F)(F)C5)C(C)(C)C)n4)cc3)cc2)c[nH]1 [Compound N-153] | >100 |
| CC(C)(C)C(=O)N[C@H](c1nc(-c2ccc(-c3ccc(-c4c[nH]c([C@@H](NC(=O)C(C)(C)C)C(C)(C)C)n4)c(F)c3)cc2)c[nH]1)C(C)(C)C.O=C(O)C(F)(F)F [Compound N-93] | >100 |
| CC(C)(C)[C@H](NC(=O)C(=O)N1C(C)(C)CCCC1(C)C)c1nc(-c2ccc(-c3ccc(-c4c[nH]c([C@@H](NC(=O)C(=O)N5C(C)(C)CCCC5(C)C)C(C)(C)C)n4)cc3)cc2)c[nH]1 [Compound W-248] | >100 |
| O=C([C@@H]1C[C@H]1c1ccccc1)N1CCC[C@H]1c1ncc(-c2ccc(-c3ccc(-c4cnc([C@@H]5CCCN5C(=O)[C@@H]5C[C@H]5c5ccccc5)[nH]4)cc3)cc2)[nH]1 [Compound S-161] | >10 |
| CC(C)[C@H](NC(=O)c1cccc(F)c1)c1ncc(-c2ccc(-c3ccc(-c4cnc([C@@H](NC(=O)c5cccc(F)c5)C(C)C)[nH]4)cc3)cc2)[nH]1 [Compound S-73] | >100 |
| CC(C)(C)[C@H](NC(=O)C1CCC(F)(F)CC1)c1nc2ccc3cc(-c4ccc5c(ccc6nc([C@@H](NC(=O)C7CCC(F)(F)CC7)C(C)(C)C)[nH]c65)c4)ccc3c2[nH]1 [Compound B25] | >100 |
| Cc1cc(-c2ccc(-c3c[nH]c([C@@H](NC(=O)C4(C)CCC(F)(F)CC4)C(C)C)n3)cc2)ccc1-c1c[nH]c([C@@H](NC(=O)C2(C)CCC(F)(F)CC2)C(C)C)n1.O=C(O)C(F)(F)F [Compound N-84] | >100 |
| CC(C)(C)[C@H](NC(=O)C(C)(C)N1CCOCC1)c1nc(-c2ccc(-c3ccc(-c4c[nH]c([C@@H](NC(=O)C(C)(C)N5CCOCC5)C(C)(C)C)n4)cc3)cc2)c[nH]1 [Compound Q-7] | >100 |
| CC(C)(C)[C@H](NC(=O)C1C2CCOC21)c1nc(-c2ccc(-c3ccc(-c4cnc([C@@H](NC(=O)C5C6CCOC65)C(C)(C)C)[nH]4)cc3)cc2)c[nH]1 (single isomer, unassigned) [Compound B-163] | >100 |
| CC(O)(CC1CC1)C(=O)N[C@H](c1nc(-c2ccc(-c3ccc(-c4cnc([C@@H](NC(=O)C(C)(O)CC5CC5)C(C)(C)C)[nH]4)cc3)cc2)c[nH]1)C(C)(C)C (stereo partly drawn) [Compound B-162] | >100 |
| CC(C)(C)[C@H](NC(=O)c1ccc(F)c(F)c1)c1nc(-c2ccc(-c3ccc(-c4c[nH]c([C@@H](NC(=O)c5ccc(F)c(F)c5)C(C)(C)C)n4)cc3)cc2)c[nH]1 [Compound N-51] | >100 |
| CC(C)[C@H](NC(=O)c1cccc2c1OCC2)c1ncc(-c2ccc(-c3ccc(-c4cnc([C@@H](NC(=O)c5cccc6c5OCC6)C(C)C)[nH]4)cc3)cc2)[nH]1 [Compound S-55] | >100 |
| CC(C)[C@H](NC(=O)CC1CCCCC1)c1ncc(-c2ccc(-c3ccc(-c4cnc([C@@H](NC(=O)CC5CCCCC5)C(C)C)[nH]4)cc3)cc2)[nH]1 [Compound S-26] | >100 |
| CC(C)(C)OC(=O)N1CC2(CC2)C[C@H]1C(=O)N[C@H](c1nc(-c2ccc(-c3ccc(-c4c[nH]c([C@@H](NC(=O)[C@@H]5CC6(CC6)CN5C(=O)OC(C)(C)C)C(C)(C)C)n4)cc3)cc2)c[nH]1)C(C)(C)C [Compound W-94] | >100 |
| COC(C)(CO)C(=O)N[C@H](c1nc(-c2ccc(-c3ccc(-c4c[nH]c([C@@H](NC(=O)C(C)(CO)OC)C(C)(C)C)n4)cc3)cc2)c[nH]1)C(C)(C)C (single isomer, unassigned) [Compound W-237] | >100 |
| CCOC(=O)C1(C(=O)N[C@H](c2nc(-c3ccc(-c4ccc(-c5c[nH]c([C@@H](NC(=O)C6(C(=O)OCC)CCCCC6)C(C)(C)C)n5)cc4)cc3)c[nH]2)C(C)(C)C)CCCCC1 [Compound N-146] | >100 |
| CC(C)(C(=O)N[C@H](c1nc(-c2ccc(-c3ccc(-c4cnc([C@@H](NC(=O)C(C)(C)C5CCOC5)C(C)(C)C)[nH]4)cc3)cc2)c[nH]1)C(C)(C)C)C1CCOC1 (stereo partly drawn) [Compound B-168] | >100 |
| CC1(C(=O)N[C@H](c2nc(-c3ccc(-c4ccc(-c5c[nH]c([C@@H](NC(=O)C6(C)CCCCC6O)C(C)(C)C)n5)cc4)cc3)c[nH]2)C(C)(C)C)CCCCC1O (single isomer, unassigned) [Compound Y-104] | >100 |
| CC(C)[C@H](NC(=O)C(C)(C)C)c1nc(-c2ccc(-c3ccc(-c4c[nH]c([C@@H](NC(=O)C(C)(C)C)C(C)C)n4)cn3)cc2)c[nH]1.O=C(O)C(F)(F)F [Compound N-103] | >100 |
| CC(C)[C@H](NC(=O)OC(C)(C)C)c1ncc(-c2ccc(-c3ccc(-c4cnc([C@@H](NC(=O)C(C)(C)C)C(C)C)[nH]4)cc3)cc2)[nH]1 [Compound Y-51] | >100 |
| CC(C)[C@H](NC(=O)c1coc2ccccc12)c1ncc(-c2ccc(-c3ccc(-c4cnc([C@@H](NC(=O)c5coc6ccccc56)C(C)C)[nH]4)cc3)cc2)[nH]1 [Compound P-100] | >100 |
| CC(C)[C@H](NC(=O)c1ccc(Cl)cc1F)c1ncc(-c2ccc(-c3ccc(-c4cnc([C@@H](NC(=O)c5ccc(Cl)cc5F)C(C)C)[nH]4)cc3)cc2)[nH]1 [Compound S-93] | >100 |
| O=C(NC(c1nc(-c2ccc(-c3ccc(-c4c[nH]c(C(NC(=O)C(=O)N5CCC(F)(F)CC5)C5CC5)n4)cc3)cc2)c[nH]1)C1CC1)C(=O)N1CCC(F)(F)CC1 [Compound L-37] | >100 |
| CC(C)(C)[C@H](NC(=O)C1CCC(=C(F)F)CC1)c1nc(-c2ccc(-c3ccc(-c4c[nH]c([C@@H](NC(=O)C5CCC(=C(F)F)CC5)C(C)(C)C)n4)cc3)cc2)c[nH]1 (stereo partly drawn) [Compound N-121] | >100 |
| CC(C)[C@H](NC(=O)C1CCC1)c1ncc(-c2ccc(-c3ccc(-c4cnc([C@@H](NC(=O)C5CCC5)C(C)C)[nH]4)cc3)cc2)[nH]1 [Compound S-22] | >100 |
